# Laboratory results as given in US20170305894A1, “PPAR AGONISTS, COMPOUNDS, PHARMACEUTICAL COMPOSITIONS, AND METHODS OF USE THEREOF” (priority 2014, published 2017).
# Experiments:
# [1] = test system: C57BL6J mice, thermal injury to the TA; test: Acute pharmacological activation of PPARδ in freeze burn (thermal) injury of the TA muscle; assay type: in vivo
# Method: TA muscles were injured according to previously published methods with a few modifications (Brack et al., Science 317(5839):807-810 (2007)). A stainless steel 1 g weight (Mettler-Toledo) equilibrated to the temperature of dry ice was placed directly on the exposed TA for 10 seconds. Following the thermal injury, incision was closed using VetBond (3M). All injury procedures were performed on the left leg, and the right leg was used as control.
# (Hamer et al., J Anat 200(Pt 1):69-79 (2002)). Sterile 1% w/v Evans Blue dye in PBS was intraperitoneally injected at 1% volume relative to the body mass of an animal. Seven hours after the injection, injured TA muscles were harvested and snap-frozen by isopentane quenching in liquid nitrogen. Frozen sections were cut in 10 μm thickness, fixed in ice-cold acetone, dipped in xylene and mounted with DPX. Proportion of the stained area over the total area was measured using ImageJ software.
# 50 mg/kg body weight of BrdU (Sigma) was injected intraperitoneally as solution of 10 mg/mL BrdU in saline. TA muscles were harvested at 7 days after injury and processed for paraffin sections as described above. BrdU incorporation was visualized using the BrdU Labeling and Detection Kit I (Roche) and BrdU+ nuclei were counted and represented as a proportion of total nuclei in a field.
# Whole or partial tissues were homogenized by Polytron probe homogenizer in Trizol reagent (Invitrogen). Total RNA was extracted from the homogenates according to the manufacturer's protocol. One microgram of DNase-treated total RNA was reverse transcribed using Superscript II Reverse Transcriptase (Invitrogen) according to the manufacturer's instructions. cDNAs were diluted 1/40 with ddH2O and used as templates in RT-QPCR reactions with SYBRGreenER qPCR SuperMix detection system (Invitrogen). Samples were prepared in technical triplicates and relative mRNA levels were calculated by using the standard curve methodology and normalized against GAPDH mRNA levels in the same samples.
# FGF1a promoter = test: Luciferase reporter assay of FGF1a promoter co-transfected with PPARδ; assay type: cell-based; conditions: with or without the ligand
# Source text: FIGS. 3A-3G illustrate that PPARδ regulates FGF1a to promote micro-vascularization. *P<0.05; **P<0.01. All error bars are SEM. FIG. 3A provides immunofluorescence staining for CD31 on transverse sections of uninjured TA from WT and TG animals. FIG. 3B provides quantification of CD31 positive capillary number (n=4). FIG. 3C illustrates the FGF1a mRNA level in TA of WT and TG by QPCR (n=5). FIG. 3D provides a Western blot for FGF1. FIG. 3E provides immunofluorescence staining for CD31 positive capillaries on transverse sections of TA, 5 days after the injury (n=3). FIG. 3F provides quantification for CD31 positive capillaries on transverse sections of TA, 5 days after the injury (n=3). FIG. 3G provides luciferase reporter assays of FGF1a promoter co-transfected with PPARδ with or without the ligand, GW501516.
# Increased vasculature is one of the hallmarks of oxidative myofibers, which facilitates introduction of immune cells and also supports increased number of satellite cells. TG animals show increased expression of FGF1 in TA muscle (FIG. 3D). Upon injury, TG animals maintain high expression of FGF1 expression (FIG. 3D). […] Furthermore, after the injury, TG animals show increased expression of CD31, which is indicative of increased vascularity (FIGS. 3E-F). […] Therefore, increased vascularity may contribute to the accelerated regenerative process observed in VP16-PPARδ animals.
structure (smiles),measurement,setting,value
Cc1cc(SCc2sc(-c3ccc(C(F)(F)F)cc3)nc2C)ccc1OCC(=O)O [GW501516],initial inflammatory responses (inflammatory marker genes),"[1]; 12 hours after the injury, with or without ligand",similarly generated
same,expressions of inflammatory marker genes by QPCR,[1]; 3 days after the injury,significantly reduced
same,reduction in the proportion of stained area,"[1]; 5 days after the injury, versus vehicle, orally 5 mg/kg",34.7%
same,"expression of PPARδ target genes (PDK4, CPT1b, and catalase) in TA by QPCR","[1]; 9 day treatment, orally 5 mg/kg",Up-regulation
same,myoblast proliferation (BrdU positive nuclei),[1]; BrdU injection at 48 hours after the injury,promoted myoblast proliferation
same,increase in the number of quiescent satellite cells,[1]; after 9 days or 4 weeks of ligand treatment,not observed
same,"Evans Blue dye uptake, proportion of muscle cross sectional area (CSA) stained","[1]; orally 5 mg/kg for 4 days prior to and 5 days after injury, 5 days after the injury, vehicle 7.6%",4.9%
same,FGF1a promoter luciferase reporter activity,FGF1a promoter,induction of FGF1a
